Activity calls are given as the source filed them. The calls are words filed in the database; no cut-off is given here.

Series [1] can be described thus: Neurotoxicity in human SH-SY5Y cells assessed as decrease in cell viability at 1 uM after 24 hrs by XTT assay. The class given is toxicity, cell-based. Background: Tetrazolium assays rely on reduction of a dye to a coloured formazan, in cell work by metabolically active cells.
The nature of series [2]: Neurotoxicity in human SH-SY5Y cells assessed as decrease in cell viability at 25 to 50 uM after 24 hrs by XTT assay. The class given is toxicity, cell-based.
Series [3] in a line: cells. As to conditions: Homo sapiens, SH-SY5Y, 24 h.
Description: Neuroprotective activity against oligomycine/rotenone-induced oxidative stress-mediated cell death in human SH-SY5Y cells assessed as increase in cell viability after 24 hrs by XTT assay
Series [4] in a line: cells. The settings on record: Homo sapiens, SH-SY5Y, 24 h. The source holds these as a separate data set.
Description: Neuroprotective activity against okadaic acid-induced tau phosphorylation-mediated cell death in human SH-SY5Y cells assessed as increase in cell viability after 24 hrs by XTT assay
A short description of series [5]: cells. The settings on record: Rattus norvegicus, Sprague-Dawley, Cortical neurone, 3 h.
Description: Neuroprotective activity against NMDA-induced excitotoxicity in Sprague-Dawley rat primary cortical neurons assessed as increase in cell viability after 3 hrs by MTT assay
The target of series [6] is Cholinesterase (Equus caballus) (UniProt P81908). Nature of the series: Inhibition of equine serum BuChE using butyrylthiocholine iodide as substrate at 50 uM incubated for 15 mins followed by substrate addition by Ellman's method.
Series [7] concerns the target Acetylcholinesterase (Electrophorus electricus) (UniProt O42275). Nature of the series: Competitive inhibition of Electrophorus electricus AChE using acetylthiocholine iodide as substrate at 0.001 to 10 uM incubated for 15 mins followed by substrate addition by Lineweaver-Burk reciprocal plot analysis.
Series [8] has as its system SH-SY5Y. Nature of the series: Neuroprotective activity against oligomycine/rotenone-induced oxidative stress-mediated cell death in human SH-SY5Y cells assessed as increase in cell viability at 10 uM after 24 hrs by microscopic analysis. It counts as functional, cell-based.
In series [9] the test system is SH-SY5Y. Nature of the series: Neuroprotective activity against okadaic acid-induced tau phosphorylation-mediated cell death in human SH-SY5Y cells assessed as increase in cell viability at 10 uM after 24 hrs by microscopic analysis. The class given is functional, cell-based.
Series [10] has as its system HepG2. Nature of the series: Hepatotoxicity in human HepG2 cells assessed as decrease in cell viability at 1 to 100 uM after 24 hrs by XTT assay. The class given is toxicity, cell-based. As to conditions: hepg2, 24 h.
Series [11] concerns HepG2. Nature of the series: Hepatoprotective activity in human HepG2 cells at 1 to 25 uM after 24 hrs by XTT assay. The class given is functional, cell-based.
The target in series [12] is T1, Acetylcholinesterase (Electrophorus electricus, UniProt O42275).
Description: Inhibition of Electrophorus electricus AChE using acetylthiocholine iodide as substrate incubated for 15 mins followed by substrate addition by Ellman's method
The target of another series is Cholinesterase (Equus caballus, UniProt P81908).
Series [13] concerns the target T1, Acetylcholinesterase. This is another data set of the same source.
Description: Inhibition of Electrophorus electricus AChE using acetylthiocholine iodide as substrate by Dixon plot analysis
In series [14] the test system is HepG2. Nature of the series: Hepatotoxicity in human HepG2 cells assessed as decrease in cell viability at 100 uM after 24 hrs by XTT assay. As to conditions: hepg2, 24 h. The class given is toxicity, cell-based.

Chain of Acetylcholinesterase (Electrophorus electricus) (O42275 24-633 limits assumed): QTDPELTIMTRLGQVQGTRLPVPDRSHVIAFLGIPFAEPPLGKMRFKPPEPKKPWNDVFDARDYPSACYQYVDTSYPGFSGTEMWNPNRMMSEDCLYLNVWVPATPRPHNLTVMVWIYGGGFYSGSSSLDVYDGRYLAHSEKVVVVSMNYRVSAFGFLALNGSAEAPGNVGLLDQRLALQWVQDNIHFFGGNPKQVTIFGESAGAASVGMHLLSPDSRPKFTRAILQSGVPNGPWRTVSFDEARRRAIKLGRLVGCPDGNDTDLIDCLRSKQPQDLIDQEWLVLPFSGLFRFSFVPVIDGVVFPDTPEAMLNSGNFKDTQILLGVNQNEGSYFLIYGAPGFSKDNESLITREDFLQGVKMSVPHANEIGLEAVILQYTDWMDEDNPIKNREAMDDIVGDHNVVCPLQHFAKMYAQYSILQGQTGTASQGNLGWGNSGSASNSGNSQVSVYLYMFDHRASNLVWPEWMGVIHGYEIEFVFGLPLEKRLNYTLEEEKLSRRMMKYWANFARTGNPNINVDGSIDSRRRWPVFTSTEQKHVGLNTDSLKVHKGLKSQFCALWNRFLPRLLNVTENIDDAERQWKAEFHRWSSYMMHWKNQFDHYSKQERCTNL
T1 sequence (O42275 whole entry): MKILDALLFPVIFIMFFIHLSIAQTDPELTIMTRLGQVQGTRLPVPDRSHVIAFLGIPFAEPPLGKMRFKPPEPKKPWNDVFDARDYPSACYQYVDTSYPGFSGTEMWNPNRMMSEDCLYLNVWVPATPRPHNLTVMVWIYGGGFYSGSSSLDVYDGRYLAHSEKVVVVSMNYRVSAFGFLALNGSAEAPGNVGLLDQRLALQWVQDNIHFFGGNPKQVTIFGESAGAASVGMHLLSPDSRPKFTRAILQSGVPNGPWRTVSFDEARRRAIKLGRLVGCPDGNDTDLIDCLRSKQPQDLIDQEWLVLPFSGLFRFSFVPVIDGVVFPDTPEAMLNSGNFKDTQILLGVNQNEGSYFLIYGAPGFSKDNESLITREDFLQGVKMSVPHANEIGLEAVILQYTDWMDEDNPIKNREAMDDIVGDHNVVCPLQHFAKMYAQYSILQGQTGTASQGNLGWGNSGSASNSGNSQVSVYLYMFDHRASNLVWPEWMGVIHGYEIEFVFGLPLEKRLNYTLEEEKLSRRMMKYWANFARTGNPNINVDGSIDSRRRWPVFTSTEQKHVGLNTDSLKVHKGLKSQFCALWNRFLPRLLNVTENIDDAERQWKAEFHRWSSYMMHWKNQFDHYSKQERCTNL
Chain of Cholinesterase (Equus caballus) (P81908 whole entry): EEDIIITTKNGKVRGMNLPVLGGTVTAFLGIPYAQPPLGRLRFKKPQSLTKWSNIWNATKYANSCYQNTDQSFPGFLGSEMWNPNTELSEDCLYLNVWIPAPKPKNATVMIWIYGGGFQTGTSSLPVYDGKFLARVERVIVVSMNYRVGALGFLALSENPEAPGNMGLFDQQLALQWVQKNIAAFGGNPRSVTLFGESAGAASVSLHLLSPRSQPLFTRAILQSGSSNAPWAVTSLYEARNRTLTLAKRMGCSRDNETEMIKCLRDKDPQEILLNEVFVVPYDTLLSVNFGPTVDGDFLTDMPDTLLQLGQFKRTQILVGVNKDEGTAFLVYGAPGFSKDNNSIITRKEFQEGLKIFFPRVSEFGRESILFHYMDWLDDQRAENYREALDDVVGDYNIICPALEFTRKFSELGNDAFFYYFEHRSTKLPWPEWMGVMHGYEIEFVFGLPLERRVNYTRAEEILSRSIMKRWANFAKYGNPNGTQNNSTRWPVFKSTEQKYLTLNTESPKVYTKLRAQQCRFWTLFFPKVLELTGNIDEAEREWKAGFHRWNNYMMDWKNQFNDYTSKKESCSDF
Chain of Cholinesterase (P81908 whole entry): as above

With `COc1ccc2c3c1O[C@H]1C[C@@H](O)C=C[C@@]31CCN(C)C2` [GALANTAMINE], the Activity result in series [1] and in series [2] was “Non-Toxic” each time. In addition, the EC50 in “cells [3]” turned out to be 2.81 µM; in the series “cells [4]”, 1.94 µM; in “cells [5]” it was 1.48 µM.
With `CC(C)=CCC/C(C)=C/CC/C(C)=C/CC/C(C)=C/Cc1cc(O)cc(Sc2ccccc2C(=O)O)c1O`, the Imax in series [6] turned out to be 60.5%. The inhibition entry in series [7] is “Active”. Also, the outcome in the series with SH-SY5Y [8], in the series on SH-SY5Y [9] and in the series on HepG2 [11] was Active. Further, the Activity entry (in series [1]; in [2]; with HepG2 [10]) was “Non-Toxic” each time. Further, the IC50 worked out at 6.77 µM at Acetylcholinesterase [12] and 19.7 µM on Cholinesterase. The same molecule gave a Ki at Acetylcholinesterase [13] of 0.00059 nM. In addition, the figures for the EC50 in the series “cells [3]” and in the series “cells [4]” were 0.52 µM and 0.15 µM, respectively.
The molecule `CC(C)=CCc1cc(O)cc(Sc2ccccc2C(=O)O)c1O` came in with an Imax in [6] of 13.1%. The inhibition entry in series [7] was “Active”. The Activity result (in [1]; in series [2]; in the series on HepG2 [10]) was “Non-Toxic” in each case. This molecule registered an IC50 against Acetylcholinesterase [12] of 7.88 µM. The same molecule gave an inhibition constant (Ki) at Acetylcholinesterase [13] of 0.221 nM. For the same molecule, the EC50 in the series “cells [3]” stood at 4.65 µM; in the series “cells [4]”, 0.54 µM.
In the case of `C/C(=C\Cc1cc(O)cc(Sc2ccccc2C(=O)O)c1O)CCCC(C)CCCC(C)CCCC(C)C` (configuration not stated), in series [6], the Imax lay within 94.3 to 95%. Also, the Activity entry is “Non-Toxic” in series [1], “Non-Toxic” in series [2] and “Toxic” with HepG2 [14]. Besides, the IC50 at Acetylcholinesterase [12] was 13.8 µM; at Cholinesterase, 12.8 µM. Further, the figures for the EC50 in the series “cells [3]” and in “cells [4]” were 1.1 µM and 1.21 µM, respectively.
As for `CC(C)=CCC/C(C)=C/Cc1cc(O)cc(Sc2ccccc2C(=O)O)c1O`, in series [6], the Imax is 17.8%. For the same molecule, the Activity result (in series [1]; in series [2]; with HepG2 [10]) was “Non-Toxic” each time. On Acetylcholinesterase [12], the IC50 was 13.1 µM. Moreover, the EC50 was 8.17 µM in the series “cells [3]” and 0.22 µM in “cells [4]”.
In turn, `CC1=CCC[C@H]2[C@](C)(Cc3cc(O)cc(Sc4ccccc4C(=O)O)c3O)[C@@H](C)CC[C@]12C` showed an Imax in series [6] of 77.5%. For the same molecule, in series [7], the inhibition entry is “Active”. Also, the IC50 on Acetylcholinesterase [12] and on Cholinesterase was 15.1 µM each time. On Acetylcholinesterase [13], the Ki amounted to 0.0585 nM.
Regarding `CC1=CCC[C@H]2[C@](C)(Cc3cc(O)ccc3O)[C@@H](C)CC[C@]12C` [AVAROL], the Activity result in [1] and in series [2] was “Non-Toxic” throughout. This molecule had an IC50 against Acetylcholinesterase [12] of 286 µM.
In series [6], `CC(C)=CCC/C(C)=C/CC/C(C)=C/Cc1cc(O)cc(Sc2ccccc2C(=O)O)c1O` gave an Imax of 8.4%. In addition, the Activity entry (in series [1]; in series [2]; with HepG2 [10]) was “Non-Toxic” each time. For the same molecule, it took 18.1 µM to reach half-maximal inhibition against Acetylcholinesterase [12] (IC50). For the same molecule, the 50% effective concentration (EC50) in the series “cells [3]” amounted to 13.6 µM; in the series “cells [4]”, 0.516 µM.

What is called EC50 is the concentration needed to bring the measured effect to its halfway point. Low readings indicate greater potency, high ones weaker potency. Usually IC50 stands for the point on the concentration scale where inhibition reaches its midpoint. Read a low IC50 as greater potency in that assay. The term Ki denotes a measure of affinity in units of concentration, obtained from inhibition or displacement. Low readings indicate a stronger hold on the target, high ones a looser hold on the target.

The values above are taken from ChEMBL document CHEMBL3868581, “Avarol derivatives as competitive AChE inhibitors, non hepatotoxic and neuroprotective agents for Alzheimer's disease” (Eur J Med Chem, 2016).
